Test results reported in patent US20140249095A1, “Method for Inhibiting Spinocerebellar Ataxia” (National Normal University, priority 2013, published 2014).

Assays:
[1] = system: ATXN3/Q75 aggregation in 293 ATXN3/Q75-GFP cells; assay: ATXN3/Q75 aggregation assay on 293 cell model; type: cell-based, human; conditions: for ATXN3/Q75 aggregation as compared to untreated cells: 293 ATXN3/Q75-GFP cells, doxycycline and oxaliplatin 6 days; for IC50 cytotoxicity/effective dose ratio: effective dose = reduced the ATXN3/Q75 aggregation to 85% or lower
Protocol: (§1) The cloned pcDNA5/FRT/TO-ATXN3/Q14 and Q75 plasmids were used to generate the isogenic ATXN3/Q14˜75 cell lines by targeting insertion into Flp-In™-293 cells. These cell lines were grown in medium containing 5 μg/mL blasticidin and 100 μg/mL hygromycin (InvivoGen). In addition, human SH-SYSY-derived Flp-In host cell line was constructed as described, and the SH-SYSY host cells were used to generate isogenic ATXN3/Q14˜75 lines and maintained as described above. ATXN3/Q75 Aggregation Assay
Then, doxycycline (10 μg/mL, BD) was added to the medium in each well to induce ATXN3/Q75-GFP expression for 6 days.
In the present example, the influences of the P. lactiflora extract and paeoniflorin in the ATXN3/Q75-GFP cells were respectively examined.

[2] = system: SH-SY5Y cells
Protocol: (§2) Cells were cultivated at 37° C. incubator containing 5% CO2 and cell proliferation was measured based upon the reduction of the tetrazolium salt, 3,[4,5-dimethylthiazol-2-yl]-2,5-diphenyl-tetrazolium bromide (MTT). Cells were plated into 48-well (5×10^4/well) dishes, grown for 20 hours and treated with different concentrations of the P. lactiflora extract (5˜30 mg/mL) or pure compound (100 nM˜1 mM). After one day, 20 μL MTT (5 mg/mL in PBS, Sigma) was added to cells and incubated for 2 hours. The absorbance of the purple formazan dye was measured at 570 nm by a Bio-Tek μQuant Universal Microplate Spectrophotometer.

[3] = system: HEK-293 cells
Protocol: as §2

[4] = in vitro; conditions: human
Protocol: as §2

[5] = system: ATXN3/Q75 aggregation in SH-SY5Y ATXN3/Q75-GFP cells; assay: ATXN3/Q75 aggregation assay on SH-SY5Y cell model; type: cell-based, human; conditions: paeoniflorin 100 nM; retinoic acid differentiated SH-SY5Y ATXN3/Q75-GFP cells, 6 days
Protocol: as §1

[6] = in vitro; conditions: human; remark: listed apart in the source
Protocol: as §2

Compound	ATXN3/Q75 aggregation as compared to untreated cells ([1]; at 100 nM) [%]	IC50 [2] [µM]	ATXN3/Q75 aggregation as compared to untreated cells ([1]; at 5 μM) [%]	IC50 cytotoxicity/effective dose ratio [1]	IC50 [3] [µM]	IC50 at 24 h [4] [µM]	aggregation reduction in ATXN3/Q75 expressed neuronal cells [5] [%]	IC50 at 24 h [6] [µM]
O=C(CCCCCCC(=O)Nc1ccccc1)NO [SAHA, suberoylanilide hydroxamic acid, reference compound]	85							
C[C@]12C[C@@H](O)[C@@H]3C[C@@]1(O[C@@H]1O[C@H](CO)[C@@H](O)[C@H](O)[C@H]1O)[C@@]3(COC(=O)c1ccccc1)C(=O)O2 [albiflorin]		> 1000	78	> 200	> 1000			
C[C@@]12C[C@@]3(O)O[C@@H](O1)[C@]1(COC(=O)c4ccccc4)[C@H]3C[C@@]12O[C@@H]1O[C@H](CO)[C@@H](O)[C@H](O)[C@H]1O [paeoniflorin]	73			> 10000		> 1000	21	> 1000
